Test results taken from ChEMBL document CHEMBL1145413, “Dehydroxychlorofusarielin B, an antibacterial polyoxygenated decalin derivative from the marine-derived fungus Aspergillus sp” (2007).
In brackets after ≈: the same amount, converted by molar mass.

Assays:
Format in all cases: functional
[1] = system: Staphylococcus aureus; assay: Antibacterial activity against methicillin-resistant Staphylococcus aureus after 18 hrs by dilution method
[2] = system: Staphylococcus aureus; assay: Antibacterial activity against multidrug-resistant Staphylococcus aureus after 18 hrs by dilution method
[3] = system: Staphylococcus aureus; assay: Antibacterial activity against Staphylococcus aureus after 18 hrs by dilution method

How did the MIC [1] turn out when C/C=C(\C)[C@H]1[C@@H](/C=C/C=C(\C)[C@@H](O)[C@@H](C)CO)[C@@H]2C[C@@H](Cl)[C@](C)(O)C[C@H]2[C@@H]2O[C@@]21C [DEHYDROXYCHLOROFUSARIELIN B] was run?
The MIC was 62.5 µg/mL (≈ 142 µM).

What about the MIC [2] of the same molecule?
Its MIC is 62.5 µg/mL (≈ 142 µM).

And the MIC [3]?
Its MIC is 62.5 µg/mL (≈ 142 µM).

Which MIC [1] does the source give for C/C=C(\C)[C@H]1[C@@H](/C=C/C=C(\C)[C@@H](O)[C@@H](C)CO)[C@@H]2C[C@@H]3O[C@]3(C)C[C@H]2[C@@H]2O[C@@]21C [FUSARIELIN A] here?
The MIC was 32.5 µg/mL (≈ 80.7 µM).

And the MIC [2]?
The MIC was 62.5 µg/mL (≈ 155 µM).

And the MIC [3]?
Its MIC is 32.5 µg/mL (≈ 80.7 µM).

What does the source list for C/C=C(\C)[C@H]1[C@@H](/C=C/C=C(\C)[C@@H](O)[C@@H](C)CO)[C@@H]2C[C@@H](O)[C@](C)(O)C[C@H]2[C@@H]2O[C@@]21C [FUSARIELIN B]?
MIC [1]: 62.5 µg/mL (≈ 149 µM); MIC [2]: 62.5 µg/mL (≈ 149 µM); MIC [3]: 62.5 µg/mL (≈ 149 µM)
